Values of other authors in US10391330B2, “Non-invasive systems and methods for in-situ photobiomodulation” (priority 2008, dated 2019).

How the values were obtained:
[1] = clinical use
[2] = test system: T cells; conditions: combination with UVA radiation

Row | Compound | duration of skin photosensitivity [1] | apoptosis of the treated T cells [2]
1 | Oc1cccc(-c2c3nc(c(-c4cccc(O)c4)c4ccc([nH]4)c(-c4cccc(O)c4)c4nc(c(-c5cccc(O)c5)c5ccc2[nH]5)CC4)C=C3)c1 [Foscan, Tetra (m-hydroxyphenyl) chlorin] | approximately 2 weeks | 
2 | COc1c2occc2cc2ccc(=O)oc12 [Compound 8-MOP, 8-methoxypsoralen] |  | causes apoptosis
